The target in one test is T1, M1 muscarinic receptor (Homo sapiens, UniProt P11229).
T1 construct: expressed in transfected cells; host or cells: CHO (M1-CHO)
T1 sequence (P11229 1-460): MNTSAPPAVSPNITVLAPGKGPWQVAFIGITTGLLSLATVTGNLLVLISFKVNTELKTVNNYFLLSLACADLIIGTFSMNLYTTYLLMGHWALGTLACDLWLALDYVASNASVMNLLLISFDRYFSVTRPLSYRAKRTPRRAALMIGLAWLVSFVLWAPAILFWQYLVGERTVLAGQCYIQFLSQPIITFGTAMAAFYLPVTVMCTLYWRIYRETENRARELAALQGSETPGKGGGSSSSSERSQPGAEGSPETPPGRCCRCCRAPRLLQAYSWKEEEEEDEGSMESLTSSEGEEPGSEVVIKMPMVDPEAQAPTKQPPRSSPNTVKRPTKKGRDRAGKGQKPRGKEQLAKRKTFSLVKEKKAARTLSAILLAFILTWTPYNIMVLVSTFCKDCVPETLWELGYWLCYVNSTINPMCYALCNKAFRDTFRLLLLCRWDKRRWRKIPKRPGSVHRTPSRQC
The experiment in a line: Functional mobilization of intracellular calcium (FLIPR) in M1-CHO cells. Format: cell-based. As to conditions: Table 4; for Emax: 100% efficacy is the maximum response obtained with the Carbachol control; for M1 Activity: M1 receptor, calcium mobilization (FLIPR). The gist of the method: (§1)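 Intracellular calcium rise is measured by FLIPR fluorescence over 60 sec in CHO cells carrying human M1 or M4 receptors. Compounds are tested alone as agonists, or pre-incubated 15 min (or co-applied) ahead of carbachol at its EC80 to detect inhibition.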

In another test the target is T2, M4 muscarinic receptor (Homo sapiens, UniProt P08173).
T2 construct: expressed in transfected cells; host or cells: CHO (M4-CHO)
T2 sequence (P08173 1-479): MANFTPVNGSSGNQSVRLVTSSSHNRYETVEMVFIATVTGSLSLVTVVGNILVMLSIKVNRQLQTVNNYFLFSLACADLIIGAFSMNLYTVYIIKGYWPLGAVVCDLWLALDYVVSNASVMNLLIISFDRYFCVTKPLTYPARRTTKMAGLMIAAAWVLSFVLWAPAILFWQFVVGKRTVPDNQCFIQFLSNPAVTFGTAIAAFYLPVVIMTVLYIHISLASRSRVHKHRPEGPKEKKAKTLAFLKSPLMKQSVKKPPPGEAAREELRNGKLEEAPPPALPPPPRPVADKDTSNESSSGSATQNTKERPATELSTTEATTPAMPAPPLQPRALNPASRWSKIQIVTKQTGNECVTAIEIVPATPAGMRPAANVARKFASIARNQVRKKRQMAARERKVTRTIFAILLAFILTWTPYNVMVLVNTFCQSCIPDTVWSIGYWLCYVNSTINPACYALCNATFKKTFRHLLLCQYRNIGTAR
Description: Functional mobilization of intracellular calcium (FLIPR) in M4-CHO cells. In kind it is cell-based. As to conditions: Table 4; for Emax: 100% efficacy is the maximum response obtained with the Carbachol control; for M4 Activity: M4 receptor, calcium mobilization (FLIPR). The gist of the method: as §1

Regarding `CC(=O)N[C@H]1CCC2(CCN(C3CCN(C(=O)OC(C)(C)C)CC3)CC2)c2ccccc21` [compound 912], on M1 muscarinic receptor, the Emax is 25 to 100% and the “M1 Activity” value is listed as “xxx (activity was measured to be less than 2.0 μM)”. In addition, at M4 muscarinic receptor, the Emax is less than 25% and the “M4 Activity” value is given as “x (activity was measured to be greater than 5.0 μM)”.
Regarding `CC(=O)N1CC2(CCN(C[C@@H]3CCN(c4cnccn4)C3)CC2)c2c(C)cccc21` [compound 913], at M1 muscarinic receptor, the Emax lay in the range of 25 to 100% and the “M1 Activity” value is on record as “x (activity was measured to be greater than 5.0 μM)”. In addition, at M4 muscarinic receptor, the Emax is less than 25% and the “M4 Activity” value was “x (activity was measured to be greater than 5.0 μM)”.
With `CN(C)C(=O)N1CC2(CCN(C3CCN(c4cnc5ccccc5n4)CC3)CC2)c2cc(F)ccc21` [compound 914], at M1 muscarinic receptor, the Emax lay in the range of 25 to 100% and the “M1 Activity” value is listed as “xxx (activity was measured to be less than 2.0 μM)”. Moreover, on M4 muscarinic receptor, the Emax was 25 to 100% and the “M4 Activity” value is “xxx (activity was measured to be less than 2.0 μM)”.
With `O=C1CC2(CCN(CC3CC4C=CC3C4)CC2)c2ccc(Cl)cc21` (stereo not drawn) [compound 915], on M1 muscarinic receptor, the Emax is 25 to 100% and the “M1 Activity” value is “x (activity was measured to be greater than 5.0 μM)”. For the same compound, on M4 muscarinic receptor, the Emax was 25 to 100% and the “M4 Activity” value is “x (activity was measured to be greater than 5.0 μM)”.
As for `CC(=O)N1CC2(CCN(C3CCC3)CC2)c2cc(F)ccc21` [compound 916], at M1 muscarinic receptor, the maximum response (Emax) was less than 25% and the “M1 Activity” value is recorded as “x (activity was measured to be greater than 5.0 μM)”. Also, at M4 muscarinic receptor, the maximal effect (Emax) was less than 25% and the “M4 Activity” value is “x (activity was measured to be greater than 5.0 μM)”.
Take `COc1ccc(C(=O)N2CCC(N3CCC4(CC3)CN(C(=O)N(C)C)c3ccc(F)cc34)CC2)cc1` [compound 917]: on M1 muscarinic receptor, the maximal response (Emax) is less than 25% and the “M1 Activity” value is reported as “x (activity was measured to be greater than 5.0 μM)”. Besides, at M4 muscarinic receptor, the Emax is less than 25% and the “M4 Activity” value was “x (activity was measured to be greater than 5.0 μM)”.
For the compound `CCOC(=O)N1CCC(N2CCC3(CC2)CN(C(C)=O)c2c(C4CCCC4)cccc23)CC1` [compound 918], at M1 muscarinic receptor, the Emax was 25 to 100% and the “M1 Activity” value was “x (activity was measured to be greater than 5.0 μM)”. Besides, on M4 muscarinic receptor, the Emax was less than 25% and the “M4 Activity” value is reported as “x (activity was measured to be greater than 5.0 μM)”.
Regarding `CC(C)C1CCC(N2CCC3(CC2)CC(C(=O)O)c2ccccc23)CC1` (stereo not drawn) [compound 919], on M1 muscarinic receptor, the Emax is less than 25% and the “M1 Activity” value is reported as “x (activity was measured to be greater than 5.0 μM)”. Further, on M4 muscarinic receptor, the Emax is less than 25% and the “M4 Activity” value is on record as “x (activity was measured to be greater than 5.0 μM)”.
For `CN(C)C(=O)N1CC2(CCN(C3CCCN(C(=O)OCC(F)F)CC3)CC2)c2cc(F)ccc21` (stereo not drawn) [compound 920], on M1 muscarinic receptor, the Emax lay in the range of 25 to 100% and the “M1 Activity” value is “xxx (activity was measured to be less than 2.0 μM)”. For the same compound, on M4 muscarinic receptor, the Emax is 25 to 100% and the “M4 Activity” value is recorded as “xxx (activity was measured to be less than 2.0 μM)”.
In the case of `CC(F)CC(=O)N1CCC(N2CCC3(CC2)CN(C(=O)N(C)C)c2ccc(F)cc23)CC1` (stereo not drawn) [compound 921], on M1 muscarinic receptor, the maximal effect (Emax) lay within 25 to 100% and the “M1 Activity” value was “x (activity was measured to be greater than 5.0 μM)”. In addition, at M4 muscarinic receptor, the Emax is less than 25% and the “M4 Activity” value is “x (activity was measured to be greater than 5.0 μM)”.
In the case of `CC(=O)NC1CC2(CCN(C3CCCC3)CC2)c2ccccc21` (stereo not drawn) [compound 922], at M1 muscarinic receptor, the Emax was in the range of 25 to 100% and the “M1 Activity” value is recorded as “x (activity was measured to be greater than 5.0 μM)”. Also, at M4 muscarinic receptor, the Emax lay within 25 to 100% and the “M4 Activity” value is reported as “x (activity was measured to be greater than 5.0 μM)”.
For `COC(=O)N1CC[C@@H](CN2CCC3(CC2)CN(C(C)=O)c2ccccc23)C1` [compound 923], on M1 muscarinic receptor, the Emax fell in the range of 25 to 100%; the “M1 Activity” value is “xx (activity was measured to be between 2.0 μM and 5.0 μM)”. For the same compound, on M4 muscarinic receptor, the Emax fell in the range of 25 to 100% and the “M4 Activity” value is “xxx (activity was measured to be less than 2.0 μM)”.
Turning to `COCCN1CC2(CCN(C3CCCCC3)CC2)c2cc(F)ccc21` [compound 925], at M1 muscarinic receptor, the Emax lay within 25 to 100% and the “M1 Activity” value was “xxx (activity was measured to be less than 2.0 μM)”. On M4 muscarinic receptor, the Emax lay in the range of 25 to 100% and the “M4 Activity” value was “xxx (activity was measured to be less than 2.0 μM)”.
Consider `CCOC(=O)C1CC1CN1CCC2(CC1)C[C@H](NC(C)=O)c1ccccc12` (stereo partly drawn) [compound 926], for which, on M1 muscarinic receptor, the Emax was 25 to 100% and the “M1 Activity” value is on record as “x (activity was measured to be greater than 5.0 μM)”. Further, at M4 muscarinic receptor, the Emax was less than 25% and the “M4 Activity” value is recorded as “x (activity was measured to be greater than 5.0 μM)”.
Consider `CCOC(=O)N1C2CCC1CC(N1CCC3(C[C@H](NC(C)=O)c4cc(F)ccc43)C1)C2` (stereo partly drawn) [compound 928], for which, at M1 muscarinic receptor, the Emax was in the range of 25 to 100% and the “M1 Activity” value was “xxx (activity was measured to be less than 2.0 μM)”. Further, at M4 muscarinic receptor, the Emax was in the range of 25 to 100% and the “M4 Activity” value was “xxx (activity was measured to be less than 2.0 μM)”.
Regarding `CC#CCOC(=O)N1CC[C@@H](CN2CCC3(CC2)CN(C(C)=O)c2cccc(C)c23)C1` [compound 929], on M1 muscarinic receptor, the Emax lay in the range of 25 to 100% and the “M1 Activity” value is reported as “xxx (activity was measured to be less than 2.0 μM)”. On M4 muscarinic receptor, the Emax was in the range of 25 to 100% and the “M4 Activity” value was “xxx (activity was measured to be less than 2.0 μM)”.
For the compound `CCOC(=O)N1CCC(N2CCC3(CC2)CN(C(C)=O)c2c(C4=CCCC4)cccc23)CC1` [compound 930], on M1 muscarinic receptor, the Emax is less than 25% and the “M1 Activity” value is recorded as “x (activity was measured to be greater than 5.0 μM)”. At M4 muscarinic receptor, the Emax was less than 25% and the “M4 Activity” value is on record as “x (activity was measured to be greater than 5.0 μM)”.
For the compound `COc1cc2c(cc1OC)C1(CCN(CC3CCCCC3)CC1)C[C@@H]2N(C(C)=O)[C@@H](C)c1ccccc1` [compound 931], on M1 muscarinic receptor, the Emax is less than 25% and the “M1 Activity” value is on record as “x (activity was measured to be greater than 5.0 μM)”. Moreover, on M4 muscarinic receptor, the Emax is less than 25% and the “M4 Activity” value is “x (activity was measured to be greater than 5.0 μM)”.
On to `CC(=O)N1CC2(CCN(C3CCN(C(=O)OC4CCOC4)CC3)CC2)c2ccccc21` (stereo not drawn) [compound 932], for which, at M1 muscarinic receptor, the Emax lay in the range of 25 to 100% and the “M1 Activity” value was “x (activity was measured to be greater than 5.0 μM)”. At M4 muscarinic receptor, the Emax was less than 25% and the “M4 Activity” value is “x (activity was measured to be greater than 5.0 μM)”.
Regarding `Cc1ccc2c(c1)C1(CCN(C3CC4CCC3C4)CC1)CN2C(=O)c1ccccc1` (stereo not drawn) [compound 933], at M1 muscarinic receptor, the maximal effect (Emax) is less than 25% and the “M1 Activity” value is “x (activity was measured to be greater than 5.0 μM)”. On M4 muscarinic receptor, the Emax was less than 25% and the “M4 Activity” value was “x (activity was measured to be greater than 5.0 μM)”.
Take `CC(=O)N[C@H]1CC2(CCN(CC3CCCC3)CC2)c2ccccc21` [compound 934]: on M1 muscarinic receptor, the Emax was in the range of 25 to 100%; the “M1 Activity” value was “xx (activity was measured to be between 2.0 μM and 5.0 μM)”. For the same compound, on M4 muscarinic receptor, the Emax lay in the range of 25 to 100% and the “M4 Activity” value was “xxx (activity was measured to be less than 2.0 μM)”.

The record behind these values is US7786141B2 (Vertex Pharmaceuticals Incorporated, priority 2004, dated 2010).
